Data set [1] relates to Human GR. The settings on record: 1.5 nM enzyme, 1 mM GSSG; steady state kinetic studies; read-out: IC50 Human GR, substrate GSSG; cited from earlier work.
Data set [2] relates to Human TrxR. The note with it: 2 nM enzyme, 3 mM DTNB; steady state kinetic studies; read-out: IC50 Human TrxR, substrate DTNB; cited from earlier work.
Data set [3] concerns the target Human TrxR. Also on record: method as in PMID 9685351. The settings on record: 1.7 nM enzyme, steady state kinetic studies, read-out: Ki Human TrxR, substrate E. coli TrxS2, cited from earlier work.
Data set [4] concerns L. amazonensis. The note with it: read-out: IC50 against L. amazonensis; cited from earlier work.
The test system of data set [5] is L. major. The settings on record: read-out: IC50 against L. major; cited from earlier work.
The target of data set [6] is human thioredoxin reductase (TrxR). Also on record: method as in PMID 9685351. The settings on record: cited from earlier work.
In data set [7] the target is L. infantum TR. The settings on record: read-out: Ki L. infantum TR, substrate TS2; 40 nM enzyme, 50–400 µM TS2; steady state; cited from earlier work.
The subject of data set [8] is S. mansoni. Details: method as in PMID 17579510. The note with it: after multiple doses; cited from earlier work.
For data set [9], the target named is B. pahangi TrxR. Put plainly: B. pahangi TrxR enzyme assay, DTNB reduction (original data). It is filed as biochemical, Brugia pahangi. The settings on record: 20 nM enzyme, 3 mM DTNB; after 15 min preincubation; read-out: IC50 B. pahangi TrxR, substrate DTNB (original data). As for the experimental part: (§1) Enzymes were prepared in E. coli as described. Assays were performed at 25 °C in 0.1 M potassium phosphate (pH 7.4), 10 mM EDTA using 100 μM NADPH and 3 mM dithiobis(2-nitrobenzoic acid) (DTNB). […] The increase in A412 during the first 3 min was recorded upon DTNB addition. The reaction was done in triplicate.

For data set [10], the target named is T1, S. mansoni TGR (Schistosoma mansoni, UniProt Q962Y6).
T1 construct: made in house; host or cells: E. coli
T1 sequence (Q962Y6 1-598): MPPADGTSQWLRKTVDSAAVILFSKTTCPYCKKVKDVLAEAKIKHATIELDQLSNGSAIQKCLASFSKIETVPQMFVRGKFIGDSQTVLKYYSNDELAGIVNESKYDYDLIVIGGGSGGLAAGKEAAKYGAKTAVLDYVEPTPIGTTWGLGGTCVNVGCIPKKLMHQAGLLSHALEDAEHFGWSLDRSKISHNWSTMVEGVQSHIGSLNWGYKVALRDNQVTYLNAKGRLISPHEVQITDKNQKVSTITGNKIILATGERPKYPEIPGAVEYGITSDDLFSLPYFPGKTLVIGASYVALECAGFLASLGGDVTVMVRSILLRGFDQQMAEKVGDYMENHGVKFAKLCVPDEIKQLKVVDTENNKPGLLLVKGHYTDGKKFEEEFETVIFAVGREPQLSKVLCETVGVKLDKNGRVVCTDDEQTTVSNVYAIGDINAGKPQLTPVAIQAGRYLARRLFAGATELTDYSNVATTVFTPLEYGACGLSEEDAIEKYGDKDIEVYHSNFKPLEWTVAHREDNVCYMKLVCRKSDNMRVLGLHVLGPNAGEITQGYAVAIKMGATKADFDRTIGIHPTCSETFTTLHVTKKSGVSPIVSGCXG
Details: method as in PMID 17579510.

Data set [11] has as its target T1, S. mansoni TGR. Put plainly: biochemical. As for the experimental part:
as §1

Data set [12] is described as follows: Cytotoxicity on human fetal lung fibroblast MRC-5. The settings on record: human, mrc-5 cells. As for the experimental part: (§2) Toxicity in human fetal lung fibroblast (MRC-5) cell line and primary mouse macrophages (PMM) was assessed using a previously reported assay in 96-well microtiter plates. Tamoxifen and miltefosine were included as reference drugs (Table 10).
(§3) For MRC5SV2 or PMM cells, the assays were performed in 96-well microtiter plates, each well containing 10 µL of compound dilution and 190 µL of cell inoculum (3 × 10^4 cells/mL) as reported. Cell growth was compared to untreated controls (100% growth) and assay-media controls (0% growth). After three-day incubation, cell viability was assessed fluorometrically by adding resazurin [50 µL/well of a stock solution in phosphate buffer (50 µg/mL)], incubating for 4 h and measuring fluorescence (ex 550 nm, em 590 nm). The results are expressed as percentage reduction in cell growth as compared to untreated control wells. […] Tamoxifen was included as the reference drug.

For data set [13] the following is noted: 1–2 h after oral administration; cited from earlier work.
A short description of data set [14]: Cytotoxicity on RAW 264.7 macrophages. It is filed as cell-based, murine. The settings on record: mouse, raw 264.7 macrophages, 48 h incubation; read-out: Cytotoxicity on RAW 264.7 Macrophages CC50 (µM) ± SD. On the procedure:
(§4) Cytotoxicity was evaluated on RAW 264.7 macrophages that were maintained at 37 °C with 5% CO2 in Dulbecco’s Modified Eagle’s Medium (DMEM, Invitrogen, Toulouse, France) supplemented with 100 U/mL penicillin-streptomycin (Invitrogen) and 10% heat-inactivated fetal bovine serum, as previously described. Briefly, cells were plated in 96-well microplates at a density of 2 × 10^4 cells per well. After incubation for 24 h at 37 °C in 5% CO2, the medium was removed from each well and 100 µL of medium containing 2-fold serial dilutions of compounds was added to each well. After 48 h incubation at 37 °C in 5% CO2, 10 µL of 450 µM resazurin was added to each well and further incubated in the dark for 4 h. Cell viability was determined as described above. The cytotoxicity of the compounds was expressed as CC50.

For data set [15], the system named is RAW 264.7 macrophages. In words: Cytotoxicity on RAW 264.7 macrophages. The settings on record: 48 h incubation; 2880 min; read-out: Cytotoxicity on RAW 264.7 Macrophages CC50 (µM) ± SD. It is filed as cell-based, murine. As for the experimental part:
as §4

In data set [16] the test system is L. infantum MHOM/MA (BE)/67 amastigotes. In words: Anti-leishmanial activity, L. infantum amastigotes in primary peritoneal mouse macrophages. In kind it is cell-based, Leishmania infantum. The settings on record: L. infantum amastigotes; equal IC50 and CC50 values. On the procedure:
Anti-leishmanial activity: L. infantum MHOM/MA (BE)/67 amastigotes were collected from the spleen of an infected donor hamster and used to infect primary peritoneal mouse macrophages grown in a 96-well plate. After 2 days outgrowth, 5 × 10^5 amastigotes were added to each well and incubated for 2 h at 37 °C. The compounds were subsequently added and the plates were further incubated for 5 days at 37 °C and 5% CO2. Parasite burdens (mean number of amastigotes/macrophage) were microscopically assessed on 500 cells after Giemsa staining and expressed as a percentage of the blank controls. Miltefosine was included as reference drug. The use of laboratory rodents was carried out in accordance to all mandatory guidelines (EU directives, including the Revised Directive 2010/63/EU on the Protection of Animals used for Scientific Purposes that came into force on 1 January 2013, and the declaration of Helsinki in its latest version) and was approved by the Ethical Committee of the University of Antwerp, Belgium [UA-ECD 2011–77 (17-02-2012 and UA-ECD 2015-90].

The target of data set [17] is T1, S. mansoni TGR. Also on record: method as in PMID 17579510. The source holds these as a separate data set.
Data set [18] deals with T1, S. mansoni TGR. Also on record: method as in PMID 17579510. This is another data set of the same source.
Data set [19] is described as follows: Cytotoxicity on primary mouse macrophages (PMM). The settings on record: mouse, primary macrophages. On the procedure:
as §2, §3

Data set [20] concerns mitochondrial TrxR2. Also on record: method as in PMID 15458826. The settings on record: 2 nM enzyme, 3 mM DTNB; steady state; read-out: IC50 TrxR, substrate DTNB (mitochondrial TrxR2 instead of cytosolic TrxR1); cited from earlier work.

Consider 3 compounds from article PMC7663263 (Molecules, 2020).

Usually IC50 stands for the midpoint of a concentration-inhibition curve. The Ki is a dissociation constant, usually derived from enzyme kinetics or from competition with a known ligand. The term CC50 denotes the concentration that lowers cell viability or growth by half.

Molecules are shown by their SMILES. Read-outs that look alike come from different tables or passages of the source.

Regarding `CC(=O)OC[C@H]1O[C@@H]([S-])[C@H](OC(C)=O)[C@@H](OC(C)=O)[C@@H]1OC(C)=O.CCP(CC)CC.[Au+]` [Auranofin], the IC50 in data set [1] was 40000 nM; in data set [2] it was 20 nM; in [4] it was 270 nM; in data set [5], 70 nM; in data set [9] it was 0.5 nM. Also, the inhibitory constant (Ki) in data set [3] (at 50 TrxS2) is 2 nM; in data set [3] (at 75 TrxS2) it was 3 nM; in [6], 4 nM; in data set [7], 155 nM. Besides, the “reduction of worm burdens in S. mansoni infected mice” value in data set [8] was ~ 60%.
For the compound `CC[P](CC)(CC)=[Au][S][C@@H]1O[C@H](COC(C)=O)[C@@H](OC(C)=O)[C@H](OC(C)=O)[C@H]1OC(C)=O` [Auranofin], the IC50 in data set [10] (read-out: IC50 S. mansoni TGR, substrate GSSG; 20 nM enzyme, 100 µM GSSG; after 15 min preincubation; cited from earlier work) was 9 nM; in [11], 1.1 nM; in data set [17] (read-out: IC50 S. mansoni TGR, substrate DTNB; 20 nM enzyme, 3 mM DTNB; after 15 min preincubation; cited from earlier work), 7 nM; in data set [18] (read-out: IC50 S. mansoni TGR, substrate HED + GSSG; 20 nM enzyme, 8 mM substrate; after 15 min preincubation; cited from earlier work), 6 nM. For the same compound, the half-maximal cytotoxic concentration (CC50) at 72 h in data set [12] is 520 nM; in data set [19], 2000 nM. The “drug remaining in the plasma” value in [13] is on record as 15–25%. Besides, the plasma concentration in data set [13] is 10000 ng/mL. For the same compound, the cytotoxic concentration (CC50) at 48 h in data set [14] is roughly 4 µM. For the same compound, the 50% cytotoxic concentration (CC50) in data set [15] came out at 4.43 ± 0.08 µM. In addition, the “IC50 versus CC50 in the assays with mouse macrophages” value in [16] is on record as “non-specific activity”.
As to `O=C(O)CC([S-])C(=O)O.[Au+]` (stereo not shown) [Aurothiomalate], the IC50 is 50 nM in [10] (20 nM enzyme, 100 µM GSSG; after 15 min preincubation; read-out: IC50 S. mansoni TGR, substrate GSSG; cited from earlier work); 280 nM in data set [20]; 90 nM in [17] (20 nM enzyme, 3 mM DTNB; after 15 min preincubation; read-out: IC50 S. mansoni TGR, substrate DTNB; cited from earlier work); 50 nM in data set [18] (20 nM enzyme, 8 mM substrate; after 15 min preincubation; read-out: IC50 S. mansoni TGR, substrate HED + GSSG; cited from earlier work).
